Experimental data reported in EP0403249A1, “Leukotriene antagonists” (SMITHKLINE BEECHAM CORPORATION, priority 1989, dated 1990).

Tested on: LTD₄
Test: Inhibition of leukotriene (LTD₄) induced contraction of guinea pig tracheal tissues in vitro
Conditions: LTD₄ concentration-response on guinea pig tracheal spiral strips, 30 minutes pretreatment with test compound, EC₃₀ shift; current average where tested more than once
Description: The leukotriene antagonist activity of the compounds of this invention is measured by the ability of the compounds to inhibit the leukotriene induced contraction' of guinea pig tracheal tissues in vitro. The following methodology was employed: In vitro: Guinea pig (adult male albino Hartley strain) tracheal spiral strips of approximate dimensions 2 to 3 mm cross-sectional width and 3.5 cm length were bathed in modified Krebs buffer in jacketed 10 ml tissue bath and continuously aerated with 95% 0₂/5% CO₂. The tissues were connected via silk suture to force displacement transducers for recording isometric tension. The tissues were equilibrated for 1 hr., pretreated for 15 minutes with meclofenamic acid (1uM) to remove intrinsic prostaglandin responses, and then pretreated for an additional 30 minutes with either the test compound or vehicle control. A cumulative concentration-response curve for LTD₄ on triplicate tissues was generated by successive increases in the bath concentration of the LTD₄. In order to minimize intertissue variability, the contractions elicited by LTD₄ were standardized as a percentage of the maximum response obtained to a reference agonist, carbachol (10uM).
Calculations: The averages of the triplicate LTD₄ concentration-response curves both in the presence and absence of the test compound were plotted on log graph paper. The concentration of LTD₄ needed to elicit 30% of the contraction elicited by carbachol was measured and defined as the EC₃₀. The -log KB value for the test compound was determined by the following equations: [formula] 2. KB= concentration of test compound/(X-1)
The antagonist activity of representative compounds of this invention is listed in Table I. The -log KB values were calculated from the above protocol. Where compounds were tested more than once, the -log KB values given here represent the current average data.

First: COc1cc(C(=O)O)ccc1CSC(c1ccccc1CCCCCCCCc1ccccc1)C(O)C(=O)O (stereo not shown) [6), 2-Hydroxy-3-(4-carboxy-2-methoxyphenylmethylthio)-3-[2-(8-phenyloctyl)phenyl]propionic acid]
Second: COc1ccc(C(=O)O)cc1CSC(c1ccccc1CCCCCCCCc1ccccc1)C(O)C(=O)O (stereo not shown) [13), 2-Hydroxy-3-[(5-carboxy-2-methoxyphenylmethyl)thio]-3-[2-(8-phenyloctyl)phenyl]propionic acid]
The “In Vitro-Log KB” value of the first is higher: 7.9 for the first, 6.5 for the second.

`O=C(O)c1ccc(SC(c2ccccc2CCCCCCCCc2ccccc2)C(O)C(=O)O)cc1` (stereo not shown) [5), 2-Hydroxy-3-(4-carboxyphenylthio)-3-[2-(8-phenyloctyl)phenyl]propionic acid] and `COC(C(=O)O)C(Sc1ccc(C(=O)O)cc1)c1ccccc1CCCCCCCCc1ccccc1` (stereo not shown) [9), 2-Methoxy-3-(4-carboxyphenylthio)-3-[2-(8-phenyloctyl)phenyl]propionic acid] are the same in “In Vitro-Log KB” value: 7.6 for the first, 7.6 for the second.

Going from `O=C(O)c1ccccc1CS[C@H](c1ccccc1CCCCCCCCc1ccccc1)[C@@H](O)C(=O)O` [2), 2(S)-Hydroxy-3(R)-(2-carboxyphenylmethylthio)-3-[2-(8-phenyloctyl)phenyl]propionic acid] to `O=C(O)c1ccccc1SC(c1ccccc1CCCCCCCCc1ccccc1)C(O)C(=O)O` (stereo not shown) [1), 2-Hydroxy-3-(2-carboxyphenylthio)-3-[2-(8-phenyloctyl)phenyl]propionic acid], the “In Vitro-Log KB” value falls from 6.2 to 5.5.

`COc1cc(C(=O)O)ccc1CSC(CC(=O)O)c1ccccc1CCCCCCCCc1ccccc1` (stereo not shown) [12), 3-(4-Carboxy-2-methoxyphenylmethylthio)-3-[2-(8-phenyloctyl)phenyl]propionic acid] and `COc1cc(C(=O)O)ccc1CSC(c1ccccc1CCCCCCCCc1ccccc1)C(OC)C(=O)O` (stereo not shown) [11), 2-Methoxy-3-(4-carboxy-2-methoxyphenylmethylthio)-3-[2-(8-phenyloctyl)phenyl]propionic acid] are within 0.2 log units of each other in “In Vitro-Log KB” value: 7.5 for the first, 7.4 for the second.

Going from `O=C(O)c1ccc(CSC(c2ccccc2CCCCCCCCc2ccccc2)C(O)C(=O)O)cc1` (stereo not shown) [7), 2-Hydroxy-3-(4-carboxyphenylmethylthio)-3-[2-(8-phenyloctyl)phenyl]propionic acid] to `O=C(O)c1cccc(CS[C@H](c2ccccc2CCCCCCCCc2ccccc2)[C@@H](O)C(=O)O)c1` [3), 2(S)-Hydroxy-3(R)-(3-carboxyphenylmethylthio)-3-[2-(8-phenyloctyl)phenyl]propionic acid], the “In Vitro-Log KB” value falls from 7.1 to 6.6.

First: O=C(O)c1cccc(SC(c2ccccc2CCCCCCCCc2ccccc2)C(O)C(=O)O)c1 (stereo not shown) [4), 2-Hydroxy-3-(3-carboxyphenylthio)-3-[2-(8-phenyloctyl)phenyl]propionic acid]
Second: O=C(O)C(O)C(Sc1ccc(O)cc1)c1ccccc1CCCCCCCCc1ccccc1 (stereo not shown) [10), 2-Hydroxy-3-(4-hydroxyphenylthio)-3-[2-(8-phenyloctyl)phenyl]propionic acid]
The “In Vitro-Log KB” value of the first is higher: 7.0 for the first, 5.9 for the second.

For `O=C(O)c1ccc(CSC(c2ccccc2CCCCCCCCc2ccccc2)C(O)C(=O)O)c(F)c1` (stereo not shown) [8), 2-Hydroxy-3-(2-fluoro-4-carboxyphenylmethylthio)-3-[2-(8-phenyloctyl)phenyl]propionic acid], the “In Vitro-Log KB” value was 7.8.
